pIC50: −log10 of the molar value.
Legend:
[1] = target: T1, SHP-2 enzyme (Met1-Leu525) (Homo sapiens, UniProt Q06124); assay: SHP2 inhibition enzymatic assay (DiFMUP substrate, IRS1 peptide activation); assay type: biochemical; conditions: SHP2 wt; activated by 500 nM IRS1 peptide; 75 μM DiFMUP substrate
T1 construct: synthetized by Origene, Met1-Leu525, cat #TP750155; purchased Origene TP750155
T1 sequence (Q06124 1-525): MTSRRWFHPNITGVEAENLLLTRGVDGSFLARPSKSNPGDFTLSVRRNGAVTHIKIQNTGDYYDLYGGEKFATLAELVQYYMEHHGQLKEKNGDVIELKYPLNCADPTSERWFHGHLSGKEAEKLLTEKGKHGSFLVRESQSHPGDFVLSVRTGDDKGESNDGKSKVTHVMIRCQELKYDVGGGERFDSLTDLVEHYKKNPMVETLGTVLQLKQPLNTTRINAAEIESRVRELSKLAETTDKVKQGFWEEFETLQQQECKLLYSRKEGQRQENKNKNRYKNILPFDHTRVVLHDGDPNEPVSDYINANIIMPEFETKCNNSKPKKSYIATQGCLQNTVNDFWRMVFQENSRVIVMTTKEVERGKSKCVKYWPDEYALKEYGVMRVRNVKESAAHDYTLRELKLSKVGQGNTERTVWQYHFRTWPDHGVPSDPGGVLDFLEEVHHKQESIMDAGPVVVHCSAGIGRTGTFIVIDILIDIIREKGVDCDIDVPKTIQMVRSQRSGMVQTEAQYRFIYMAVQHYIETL
Method in brief: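 SHP-2 (Met1-Leu525, 0.5 nM final) preincubated 30 min with compounds and IRS1 activating peptide in HEPES pH 7.2 buffer with NaCl, KCl, EDTA, tween-20, 5 mM DTT. DiFMUP then added for 30 min at room temperature and fluorescence read. IC50 from four-parameter logistic fit of % inhibition.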

[2] = test system: ERK phosphorylation in KYSE-520 cells; assay: Phospho-ERK cellular assay (Advanced phospho-ERK1/2 (Thr202/Tyr204) TR-FRET kit); assay type: cell-based; conditions: Homo sapiens, KYSE-520, 2 h, KYSE-520 cells, 2 h at 37° C., TR-FRET; read-out: pERK IC50
Method in brief: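 IC50 values are inflection points of four-parameter logistic fits of percent activity against compound dilution. Compound exposure lasted 2 h at 37° C in KYSE-520 cells. Lysates were probed overnight with Eu-cryptate/d2 antibodies to ERK1/2 phosphorylated at Thr202/Tyr204, so reduced TR-FRET indicates SHP2 inhibition.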

| SMILES | pIC50 [1] | pIC50 [2] |
| --- | --- | --- |
| COc1ncccc1Sc1cnc2[nH]c(N3CCC4(CC3)Cc3ccc(Br)cc3[C@H]4N)nc2n1 [Example 231, (S)-6-bromo-1′-(5-((2-methoxypyridin-3-yl)thio)-1H-imidazo[4,5-b]pyrazin-2-yl)-1,3-dihydrospiro[indene-2,4′-piperidin]-1-amine] | > 6.30 | > 6.00 |
| N[C@@H]1c2ccccc2CC12CCN(c1nc3nc(Sc4ccnc5[nH]ccc45)cnc3[nH]1)CC2 [Example 232, (S)-1′-(5-((1H-pyrrolo[2,3-b]pyridin-4-yl)thio)-1H-imidazo[4,5-b]pyrazin-2-yl)-1,3-dihydrospiro[indene-2,4′-piperidin]-1-amine] | > 6.30 | > 6.00 |
| Cn1cc2c(n1)CC1(CCN(c3nc4nc(Sc5ccnc(N)c5Cl)cnc4[nH]3)CC1)C2N (stereo not shown) [Example 233, 1′-(5-((2-amino-3-chloropyridin-4-yl)thio)-1H-imidazo[4,5-b]pyrazin-2-yl)-2-methyl-2,6-dihydro-4H-spiro[cyclopenta[c]pyrazole-5,4′-piperidin]-4-amine] | > 6.30 | > 6.00 |
| N[C@@H]1c2ccccc2CC12CCN(c1nc3nc(Sc4ccn[nH]c4=O)cnc3[nH]1)CC2 [Example 234, (S)-4-((2-(1-amino-1,3-dihydrospiro[indene-2,4′-piperidin]-1′-yl)-1H-imidazo[4,5-b]pyrazin-5-yl)thio)pyridazin-3(2H)-one] | > 6.30 | > 6.00 |
| N[C@@H]1c2ccccc2CC12CCN(c1nc3nc(Sc4cccnc4OCc4ncco4)cnc3[nH]1)CC2 [Example 235, (S)-1′-(5-((2-(oxazol-2-ylmethoxy)pyridin-3-yl)thio)-1H-imidazo[4,5-b]pyrazin-2-yl)-1,3-dihydrospiro[indene-2,4′-piperidin]-1-amine] | > 6.30 | 5.30 to 6.00 |
| COc1nnccc1Sc1cnc2[nH]c(N3CCC4(CC3)Cc3ccccc3[C@H]4N)nc2n1 [Example 236, (S)-1′-(5-((3-methoxypyridazin-4-yl)thio)-1H-imidazo[4,5-b]pyrazin-2-yl)-1,3-dihydrospiro[indene-2,4′-piperidin]-1-amine] | 5.52 to 6.30 | < 5.30 |
| COc1ccncc1Sc1cnc2[nH]c(N3CCC4(CC3)Cc3ccccc3[C@H]4N)nc2n1 [Example 237, (S)-1′-(5-((4-methoxypyridin-3-yl)thio)-1H-imidazo[4,5-b]pyrazin-2-yl)-1,3-dihydrospiro[indene-2,4′-piperidin]-1-amine] | > 6.30 | < 5.30 |
| N[C@@H]1c2ccccc2CC12CCN(c1nc3nc(Sc4ccc[nH]c4=O)cnc3[nH]1)CC2 [Example 238, (S)-3-((2-(1-amino-1,3-dihydrospiro[indene-2,4′-piperidin]-1′-yl)-1H-imidazo[4,5-b]pyrazin-5-yl)thio)pyridin-2(1H)-one] | > 6.30 | < 5.30 |
| COc1nccc(Sc2cnc3[nH]c(N4CCC5(CC4)Cc4ccccc4[C@H]5N)nc3n2)c1Cl [Example 239, (S)-1′-(5-((3-chloro-2-methoxypyridin-4-yl)thio)-1H-imidazo[4,5-b]pyrazin-2-yl)-1,3-dihydrospiro[indene-2,4′-piperidin]-1-amine] | > 6.30 | 5.30 to 6.00 |
| N#Cc1c[nH]c2nccc(Sc3cnc4[nH]c(N5CCC6(CC5)Cc5ccccc5[C@H]6N)nc4n3)c12 [Example 240, (S)-4-((2-(1-amino-1,3-dihydrospiro[indene-2,4′-piperidin]-1′-yl)-1H-imidazo[4,5-b]pyrazin-5-yl)thio)-1H-pyrrolo[2,3-b]pyridine-3-carbonitrile] | > 6.30 | 5.30 to 6.00 |
| N[C@@H]1c2ccccc2CC12CCN(c1nc3nc(Sc4cc(O)ncc4Cl)cnc3[nH]1)CC2 [Example 241, (S)-4-((2-(1-amino-1,3-dihydrospiro[indene-2,4′-piperidin]-1′-yl)-1H-imidazo[4,5-b]pyrazin-5-yl)thio)-5-chloropyridin-2-ol] | 5.52 to 6.30 | 5.30 to 6.00 |
| COc1cc(Sc2cnc3[nH]c(N4CCC5(CC4)Cc4ccccc4[C@H]5N)nc3n2)c(Cl)cn1 [Example 242, (S)-1′-(5-((5-chloro-2-methoxypyridin-4-yl)thio)-1H-imidazo[4,5-b]pyrazin-2-yl)-1,3-dihydrospiro[indene-2,4′-piperidin]-1-amine] | 5.52 to 6.30 | 5.30 to 6.00 |
| N[C@@H]1c2ccccc2CC12CCN(c1cc3nc(Sc4cccc(Cl)c4Cl)cnc3[nH]1)CC2 [Example 243, (S)-1′-(2-((2,3-dichlorophenyl)thio)-5H-pyrrolo[2,3-b]pyrazin-6-yl)-1,3-dihydrospiro[indene-2,4′-piperidin]-1-amine] | > 6.30 | > 6.00 |
| Nc1nccc(Sc2cnc3[nH]c(N4CCC5(CC4)Cc4ccc(CO)cc4[C@H]5N)nc3n2)c1Cl [Example 244, (S)-(1-amino-1′-(5-((2-amino-3-chloropyridin-4-yl)thio)-1H-imidazo[4,5-b]pyrazin-2-yl)-1,3-dihydrospiro[indene-2,4′-piperidin]-6-yl)methanol] | > 6.30 | > 6.00 |
| Nc1nccc(Sc2cnc3[nH]c(N4CCC5(CC4)Cc4ccc(CF)cc4[C@H]5N)nc3n2)c1Cl [Example 245, (S)-1′-(5-((2-amino-3-chloropyridin-4-yl)thio)-1H-imidazo[4,5-b]pyrazin-2-yl)-6-(fluoromethyl)-1,3-dihydrospiro[indene-2,4′-piperidin]-1-amine] | > 6.30 | > 6.00 |
| CCNc1nccc(Sc2cnc3[nH]c(N4CCC5(CC4)Cc4ccccc4[C@H]5N)nc3n2)c1Cl [Example 246, (S)-1′-(5-((3-chloro-2-(ethylamino)pyridin-4-yl)thio)-1H-imidazo[4,5-b]pyrazin-2-yl)-1,3-dihydrospiro[indene-2,4′-piperidin]-1-amine] | > 6.30 | < 5.30 |
| N[C@@H]1c2ccccc2CC12CCN(c1nc3nc(Sc4ccnnc4Cl)cnc3[nH]1)CC2 [Example 247, (S)-1′-(5-((3-chloropyridazin-4-yl)thio)-1H-imidazo[4,5-b]pyrazin-2-yl)-1,3-dihydrospiro[indene-2,4′-piperidin]-1-amine] | > 6.30 | > 6.00 |
| N[C@@H]1c2ccccc2CC12CCN(c1[nH]c3ncc(Sc4cccc(Cl)c4Cl)nc3c1Cl)CC2 [Example 248, (S)-1′-(7-chloro-2-((2,3-dichlorophenyl)thio)-5H-pyrrolo[2,3-b]pyrazin-6-yl)-1,3-dihydrospiro[indene-2,4′-piperidin]-1-amine] | > 6.30 | 5.30 to 6.00 |
| N[C@@H]1c2ccccc2CC12CCN(c1nc3nc(N4CCCc5ncccc54)cnc3[nH]1)CC2 [Example 249, (S)-1′-(5-(3,4-dihydro-1,5-naphthyridin-1(2H)-yl)-1H-imidazo[4,5-b]pyrazin-2-yl)-1,3-dihydrospiro[indene-2,4′-piperidin]-1-amine] | > 6.30 | > 6.00 |
| COc1ncc(CN)cc1Sc1cnc2[nH]c(N3CCC4(CC3)Cc3ccccc3[C@H]4N)nc2n1 [Example 250, (1S)-1′-[5-[5-(aminomethyl)-2-methoxy-pyridin-3-yl]sulfanyl-1H-imidazo[4,5-b]pyrazin-2-yl]spiro[1,3-dihydroindene-2,4′-piperidine]-1-amine] | < 5.52 | 5.30 to 6.00 |

Reference: patent US20220289753A1, “SHP2 INHIBITORS” (IRBM S.P.A., priority 2019, published 2022)
